System: 874868-142-R-J2-PDC complex spheroids, growth % test/control
Experiment: Anticancer human tumor 874868-142-R-J2-PDC patient-derived head and neck squamous carcinoma cell line growth inhibition [CLK]
Details: for IC50: curve of first compound; for viability, T/C: stronger effect = lower value
Summary of the method: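 Patient-derived tumor cells grown as complex spheroids with HUVEC endothelial cells and mesenchymal stem cells, treated with drug combinations. Concentrations descend in half-log steps from near clinical Cmax, or from 10 microM if Cmax unknown.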

[1] = second compound 0.0316 µM, first compound 0.0316 µM
[2] = second compound 0.0316 µM, first compound 0.1 µM
[3] = second compound 0.0316 µM, first compound 0.316 µM
[4] = second compound 0.0316 µM, first compound 1 µM
[5] = second compound 0.0316 µM, first compound 3.16 µM
[6] = second compound 0.0316 µM, first compound 10 µM
[7] = second compound 0.1 µM, first compound 0.0316 µM
[8] = second compound 0.1 µM, first compound 0.1 µM
[9] = second compound 0.1 µM, first compound 0.316 µM
[10] = second compound 0.1 µM, first compound 1 µM
[11] = second compound 0.1 µM, first compound 3.16 µM
[12] = second compound 0.1 µM, first compound 10 µM
[13] = second compound 0.316 µM, first compound 0.0316 µM
[14] = second compound 0.316 µM, first compound 0.1 µM
[15] = second compound 0.316 µM, first compound 0.316 µM
[16] = second compound 0.316 µM, first compound 1 µM
[17] = second compound 0.316 µM, first compound 3.16 µM
[18] = second compound 0.316 µM, first compound 10 µM
[19] = second compound 1 µM, first compound 0.0316 µM
[20] = second compound 1 µM, first compound 0.1 µM
[21] = second compound 1 µM, first compound 0.316 µM
[22] = second compound 1 µM, first compound 1 µM
[23] = second compound 1 µM, first compound 3.16 µM
[24] = second compound 1 µM, first compound 10 µM
[25] = second compound 3.16 µM, first compound 0.0316 µM
[26] = second compound 3.16 µM, first compound 0.1 µM
[27] = second compound 3.16 µM, first compound 0.316 µM
[28] = second compound 3.16 µM, first compound 1 µM
[29] = second compound 3.16 µM, first compound 3.16 µM
[30] = second compound 3.16 µM, first compound 10 µM
[31] = second compound 10 µM, first compound 0.0316 µM
[32] = second compound 10 µM, first compound 0.1 µM
[33] = second compound 10 µM, first compound 0.316 µM
[34] = second compound 10 µM, first compound 1 µM
[35] = second compound 10 µM, first compound 3.16 µM
[36] = second compound 10 µM, first compound 10 µM
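Note: spheroids exposed to the compounds for 7 days.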
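Throughout, for viability, T/C: 100% = DMSO vehicle control viability.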

C#Cc1c(F)ccc2cc(O)cc(-c3ncc4c(N5CC6CCC(C5)N6)nc(OCC56CCCN5CC(F)C6)nc4c3F)c12 (centres undefined) + CNC(=O)c1ccc(Nc2nc(OC3CCCC3)c3c(-c4ccc5nc(C)oc5c4)c[nH]c3n2)c(OC)c1
IC50 (second compound 0.0316 µM): 6560 nM
IC50 (second compound 0.1 µM): 862 nM
IC50 (second compound 0.316 µM): 89.5 nM
IC50 (second compound 1 µM): < 31.6 nM
IC50 (second compound 3.16 µM): < 31.6 nM
IC50 (second compound 10 µM): < 31.6 nM
viability, T/C [1]: 92.7%
viability, T/C [2]: 75.7%
viability, T/C [3]: 80.7%
viability, T/C [4]: 65%
viability, T/C [5]: 54.3%
viability, T/C [6]: 47.1%
viability, T/C [7]: 72.5%
viability, T/C [8]: 84.5%
viability, T/C [9]: 66.5%
viability, T/C [10]: 48.4%
viability, T/C [11]: 51%
viability, T/C [12]: 43.3%
viability, T/C [13]: 58.1%
viability, T/C [14]: 48.5%
viability, T/C [15]: 44.2%
viability, T/C [16]: 43%
viability, T/C [17]: 39.8%
viability, T/C [18]: 39%
viability, T/C [19]: 41.6%
viability, T/C [20]: 39.4%
viability, T/C [21]: 36.5%
viability, T/C [22]: 35.2%
viability, T/C [23]: 35.1%
viability, T/C [24]: 31.6%
viability, T/C [25]: 37.1%
viability, T/C [26]: 37.8%
viability, T/C [27]: 31.1%
viability, T/C [28]: 30%
viability, T/C [29]: 30.5%
viability, T/C [30]: 33.8%
viability, T/C [31]: 35.8%
viability, T/C [32]: 37.4%
viability, T/C [33]: 33.9%
viability, T/C [34]: 32.6%
viability, T/C [35]: 32.4%
viability, T/C [36]: 26.8%

C=C(F)C(=O)N1CCN(c2nc(OCC3CCCN3C)nc3c2CCN(c2cccc4cccc(Cl)c24)C3)CC1CC#N (centres undefined) + CNC(=O)c1ccc(Nc2nc(OC3CCCC3)c3c(-c4ccc5nc(C)oc5c4)c[nH]c3n2)c(OC)c1
IC50 (second compound 0.0316 µM): 3460 nM
IC50 (second compound 0.1 µM): 3370 nM
IC50 (second compound 0.316 µM): < 31.6 nM
IC50 (second compound 1 µM): < 31.6 nM
IC50 (second compound 3.16 µM): < 31.6 nM
IC50 (second compound 10 µM): < 31.6 nM
viability, T/C [1]: 91.7%
viability, T/C [2]: 70.4%
viability, T/C [3]: 89.3%
viability, T/C [4]: 68.4%
viability, T/C [5]: 56.8%
viability, T/C [6]: 0.28%
viability, T/C [7]: 71.2%
viability, T/C [8]: 68.8%
viability, T/C [9]: 65.9%
viability, T/C [10]: 61.6%
viability, T/C [11]: 54.6%
viability, T/C [12]: 0.63%
viability, T/C [13]: 50.5%
viability, T/C [14]: 49.2%
viability, T/C [15]: 47.6%
viability, T/C [16]: 43.8%
viability, T/C [17]: 38.5%
viability, T/C [18]: 1.18%
viability, T/C [19]: 44.4%
viability, T/C [20]: 33%
viability, T/C [21]: 36.7%
viability, T/C [22]: 38.5%
viability, T/C [23]: 35.2%
viability, T/C [24]: 0.25%
viability, T/C [25]: 37.5%
viability, T/C [26]: 41.8%
viability, T/C [27]: 31%
viability, T/C [28]: 38%
viability, T/C [29]: 32.2%
viability, T/C [30]: 7.83%
viability, T/C [31]: 36.1%
viability, T/C [32]: 35.1%
viability, T/C [33]: 38.1%
viability, T/C [34]: 39.1%
viability, T/C [35]: 31.1%
viability, T/C [36]: 3.95%

From PubChem BioAssay AID2060601 (Molecular Pharmacology Branch, DTP, NCI, 2025)
